Like-named read-outs stand apart in the source and are kept apart here.

The experiment has as its target Rev-RRE complexes (recombinant Rev protein, synthetic 32P-labelled RRE RNA) (Human immunodeficiency virus type 1 group M subtype B, UniProt P04618). Nature of the experiment: Rev-RRE binding inhibition, nitrocellulose filter binding assay with scintillation counting. Set-up: species or system Human Immunodeficiency Virus (HIV). The method, then: The array was assayed in parallel at 6 ug/mL in reaction mixtures containing recombinant Rev protein, synthetic 32P-labelled RRE RNA, and a non-specific competitor RNA. The reaction is then filtered through nitrocellulose filters and washed with a low salt binding buffer. Rev-RRE complexes are retained in the filter while the unbound RRE filters through. Rev-RRE complexes retained in the filter are then quantified by scintillation counting. The percentage of inhibition is calculated according to the formula: […]
where CPM1 is the activity obtained in the presence of the drug and CPM0 is the average activity in the absence of the drug. […] Raising the criterion of interest to 90% inhibition of complex formation afforded a set of 55 compounds which were examined for common functionality. These 55 compounds and their inhibition values are listed in the following table, where A, B, and C are the structural diversity elements of the scaffold: […]

Where [1] appears, read: array assayed at 6 ug/mL, non-specific competitor RNA, read-out: % inh.
[2] abbreviates: read-out: % inh, array assayed at 6 ug/mL, non-specific competitor RNA.

Sequence of Rev-RRE complexes (recombinant Rev protein, synthetic 32P-labelled RRE RNA) (P04618 whole entry, looked up, one chain of several): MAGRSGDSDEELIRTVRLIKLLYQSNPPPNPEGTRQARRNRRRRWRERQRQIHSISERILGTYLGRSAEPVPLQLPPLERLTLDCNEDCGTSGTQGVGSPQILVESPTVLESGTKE

Turning to `O=C(NCC(c1ccccc1)c1ccccc1)/C(=C/c1cc(F)cc(F)c1)NC(=O)c1ccc(Cl)cc1Cl`, under setting [1], the inhibition at 6 µg/mL amounted to 94%. In the case of `O=C(NC(c1ccccc1)c1ccccc1)/C(=C/c1cccc(C(F)(F)F)c1)NC(=O)c1ccc2ccccc2c1`, the “% inh” value (array assayed at 6 ug/mL, non-specific competitor RNA) came to 93%. The inhibition at 6 µg/mL under setting [1] amounted to 96%. Take `CC(C)CC(CO)NC(=O)/C(=C/c1cccc(C(F)(F)F)c1)NC(=O)c1ccc2ccccc2c1` (stereo not shown): the inhibition at 6 µg/mL under setting [1] turned out to be 94%.

As to `CCC(CC)NC(=O)/C(=C/c1cccc(C(F)(F)F)c1)NC(=O)c1ccc2ccccc2c1`, the inhibition at 6 µg/mL under setting [1] was 93%. As to `Cc1ccc(CCNC(=O)/C(=C/c2cccc(C(F)(F)F)c2)NC(=O)c2ccc3ccccc3c2)cc1`, under setting [1], the inhibition at 6 µg/mL was 96%.

On to `O=C(NCC(c1ccccc1)c1ccccc1)/C(=C/c1cccc(C(F)(F)F)c1)NC(=O)c1ccc(Cl)cc1Cl`, for which the inhibition at 6 µg/mL under setting [1] stood at 93%. Consider `O=C(N/C(=C\c1ccc(C(F)(F)F)cc1)C(=O)N1CCN(c2ccccc2)CC1)c1ccc(C(F)(F)F)cc1`, for which the inhibition at 6 µg/mL under setting [1] is 91%. `O=C(NC(c1ccccc1)c1ccccc1)/C(=C/c1cccc(Cl)c1)NC(=O)c1ccc2ccccc2c1`: the inhibition at 6 µg/mL under setting [1] was determined as 92%. Take `Cc1ccc(CCNC(=O)/C(=C/c2cccc(Oc3ccccc3)c2)NC(=O)c2ccc(Cl)cc2Cl)cc1`: the inhibition at 6 µg/mL under setting [1] is 95%.

Consider `COc1cccc(/C=C(\NC(=O)c2ccc3ccccc3c2)C(=O)NC(c2ccccc2)c2ccccc2)c1` [2-naphthyl / m-anisyl / diphenylmethyl], for which the inhibition at 6 µg/mL under setting [1] worked out at 94%.

`O=C(NC1CCCc2ccccc21)/C(=C/c1ccc(C(F)(F)F)cc1)NC(=O)c1ccc2ccccc2c1` (stereo not shown): under setting [1], the inhibition at 6 µg/mL came out at 95%.

On to `COc1cccc(/C=C(\NC(=O)c2ccc3ccccc3c2)C(=O)NCCc2ccccc2)c1` [2-naphthyl / m-anisyl / phenethyl], for which, under setting [1], the inhibition at 6 µg/mL is 91%. On the same count and under the same terms, in the case of `O=C(NC1CCCc2ccccc21)/C(=C/c1ccc(Cl)cc1)NC(=O)c1ccc(C(F)(F)F)cc1` (stereo not shown) it was 92%; in that of `O=C(NC(c1ccccc1)c1ccccc1)/C(=C/c1cccc(C(F)(F)F)c1)NC(=O)c1ccc(Cl)cc1Cl`, 96%; in that of `O=C(NC(c1ccccc1)c1ccccc1)/C(=C/c1ccc(-c2ccccc2)cc1)NC(=O)c1ccc(Cl)cc1Cl`, 96%.

As to `O=C(Nc1cccnc1)/C(=C/c1ccccc1F)NC(=O)c1ccccc1` [phenyl / 2-fluorophenyl / 3-pyridinyl], under setting [1], the inhibition at 6 µg/mL is 91%. Still for that read-out and setting: in the case of `Cc1ccc(C(=O)N/C(=C\c2ccc(F)cc2F)C(=O)NCC(O)c2ccccc2)cc1` (stereo not shown) it was 96%. Same read-out and setting: with `O=C(NC1CCCc2ccccc21)/C(=C/c1ccc(C(F)(F)F)cc1)NC(=O)c1ccc(C(F)(F)F)cc1` (stereo not shown) the figure was 94%; with `O=C(NCCCc1ccccc1)/C(=C/c1ccc(C(F)(F)F)cc1)NC(=O)c1ccc2ccccc2c1`, 91%; with `O=C(NCc1cccc2ccccc12)/C(=C/c1cnc2ccccc2c1)NC(=O)c1ccc2ccccc2c1`, 96%. In the case of `O=C(NC1CCc2ccccc21)/C(=C/c1cccc(C(F)(F)F)c1)NC(=O)c1ccc2ccccc2c1` (stereo not shown), under setting [1], the inhibition at 6 µg/mL was 92%. In the case of `O=C(NCC(c1ccccc1)c1ccccc1)/C(=C/c1ccc(F)cc1)NC(=O)c1ccc2ccccc2c1`, the inhibition at 6 µg/mL under setting [1] came out at 90%. On to `Cc1ccc(C(=O)N/C(=C\c2ccccc2Cl)C(=O)NCc2cccc3ccccc23)cc1`, for which the inhibition at 6 µg/mL under setting [1] is 90%.

In the case of `O=C(NCCc1ccccc1)/C(=C/c1ccc(-c2ccccc2)cc1)NC(=O)c1ccc(Cl)cc1Cl`, the inhibition at 6 µg/mL under setting [1] came to 91%. As to `O=C(NC1CCCc2ccccc21)/C(=C/c1cccc(C(F)(F)F)c1)NC(=O)c1ccc2ccccc2c1` (stereo not shown), where the note is “array assayed at 6 ug/mL, non-specific competitor RNA, listed as 2-napbthyl / α,α,α-trifluoro-m-toluyl / 1,2,3,4-tetrahydronaphth-1-yl”, the “% inh” value amounted to 90%. Besides, under setting [1], the inhibition at 6 µg/mL was 97%. On to `O=C(NC(c1ccccc1)c1ccccc1)/C(=C/c1cccc(Oc2ccccc2)c1)NC(=O)c1ccc(C(F)(F)F)cc1`, for which the inhibition at 6 µg/mL under setting [1] was 94%. Turning to `CC(CCc1ccccc1)NC(=O)/C(=C/c1ccc(C(F)(F)F)cc1)NC(=O)c1ccc2ccccc2c1` (stereo not shown), under setting [2], the inhibition at 6 µg/mL came to 96%. With `O=C(NCC(O)c1ccccc1)/C(=C/c1ccc(Cl)cc1Cl)NC(=O)c1ccc2ccccc2c1` (stereo not shown), under setting [1], the inhibition at 6 µg/mL was determined as 95%. As for `O=C(N/C(=C\c1cccc(Oc2ccccc2)c1)C(=O)N1CCN(c2ccccc2)CC1)c1ccc(C(F)(F)F)cc1`, the inhibition at 6 µg/mL under setting [1] is 90%. As to `O=C(NCC(c1ccccc1)c1ccccc1)/C(=C/c1ccc(C(F)(F)F)cc1)NC(=O)c1ccc2ccccc2c1`, under setting [1], the inhibition at 6 µg/mL is 95%. On the same count and under the same terms, in the case of `O=C(NC1CCCc2ccccc21)/C(=C/c1ccc(-c2ccccc2)cc1)NC(=O)c1ccc(Cl)cc1Cl` (stereo not shown) it was 92%; in that of `O=C(NC1CCCc2ccccc21)/C(=C/c1ccc(OC(F)(F)F)cc1)NC(=O)c1ccc2ccccc2c1` (stereo not shown), 94%. Take `O=C(NC1CCc2ccccc21)/C(=C/c1ccc(C(F)(F)F)cc1)NC(=O)c1ccc2ccccc2c1` (stereo not shown): the inhibition at 6 µg/mL under setting [1] is 92%. As for `O=C(NC1CCCCC1)/C(=C/c1ccccc1)NC(=O)c1ccc(Cl)cc1Cl` [2,4-dichlorophenyl / phenyl / cyclohexyl], the inhibition at 6 µg/mL under setting [1] was 98%. The same measure, in the same setting: with `O=C(N/C(=C\c1cccc(C(F)(F)F)c1)C(=O)N1CCC(Cc2ccccc2)CC1)c1ccc2ccccc2c1` the figure was 95%; with `O=C(NC1CCCc2ccccc21)/C(=C/c1cccc(C(F)(F)F)c1)NC(=O)c1ccc(Cl)cc1Cl` (stereo not shown), 90%; with `O=C(NC1CCc2ccccc21)/C(=C/c1ccc(-c2ccccc2)cc1)NC(=O)c1ccc(Cl)cc1Cl` (stereo not shown), 90%. On the same count and under the same terms, with `Cc1ccc(CCNC(=O)/C(=C/c2ccc(-c3ccccc3)cc2)NC(=O)c2ccc(Cl)cc2Cl)cc1` the figure was 94%; with `O=C(NCC(c1ccccc1)c1ccccc1)/C(=C/c1cccc(C(F)(F)F)c1)NC(=O)c1ccc2ccccc2c1`, 93%. On to `O=C(N/C(=C\c1ccc(C(F)(F)F)cc1)C(=O)N1CCC(Cc2ccccc2)CC1)c1ccc2ccccc2c1`, for which the inhibition at 6 µg/mL under setting [1] was found to be 91%. In the case of `O=C(NCc1cccc2ccccc12)/C(=C/c1ccc(F)cc1F)NC(=O)c1ccc2ccccc2c1`, under setting [1], the inhibition at 6 µg/mL is 93%. Consider `O=C(NCc1ccccc1)/C(=C/c1ccc(-c2ccccc2)cc1)NC(=O)c1ccc(Cl)cc1Cl`, for which the inhibition at 6 µg/mL under setting [1] was found to be 94%.

`O=C(NC(c1ccccc1)c1ccccc1)/C(=C/c1ccc(OC(F)(F)F)cc1)NC(=O)c1ccc2ccccc2c1`: under setting [1], the inhibition at 6 µg/mL turned out to be 96%.

On to `O=C(NCc1cccc2ccccc12)/C(=C/c1ccc(-c2ccccc2)cc1)NC(=O)c1ccc(Cl)cc1Cl`, for which, under setting [1], the inhibition at 6 µg/mL came out at 90%.

In the case of `O=C(N/C(=C\c1ccc(C(F)(F)F)cc1)C(=O)N1CCN(c2cccc(C(F)(F)F)c2)CC1)c1ccc(Cl)cc1Cl`, under setting [1], the inhibition at 6 µg/mL stood at 90%. Regarding `O=C(Nc1cccnc1)/C(=C/c1ccc(Cl)cc1Cl)NC(=O)c1ccc2ccccc2c1`, the inhibition at 6 µg/mL under setting [1] was 91%. In the case of `O=C(NCc1ccco1)/C(=C/c1cccc(C(F)(F)F)c1)NC(=O)c1ccc2ccccc2c1`, the inhibition at 6 µg/mL under setting [1] stood at 93%. Same read-out and setting: with `Cc1ccc(C(=O)N/C(=C\c2ccccc2Cl)C(=O)NCCCN2CCOCC2)cc1` the figure was 95%. For the compound `O=C(Nc1cccnc1)/C(=C/c1cc(F)cc(F)c1)NC(=O)c1ccc(Cl)cc1Cl`, the inhibition at 6 µg/mL under setting [2] worked out at 91%. For the compound `O=C(NCc1cccc2ccccc12)/C(=C/c1cccc(C(F)(F)F)c1)NC(=O)c1ccc2ccccc2c1`, the inhibition at 6 µg/mL under setting [1] turned out to be 94%. In the case of `O=C(NC(c1ccccc1)c1ccccc1)/C(=C/c1ccc(C(F)(F)F)cc1)NC(=O)c1ccc2ccccc2c1`, the inhibition at 6 µg/mL under setting [2] was found to be 96%. Take `O=C(NC1CCCc2ccccc21)/C(=C/c1cccc(Oc2ccccc2)c1)NC(=O)c1ccc(C(F)(F)F)cc1` (stereo not shown): the inhibition at 6 µg/mL under setting [1] amounted to 90%. Regarding `Cc1ccc(CCNC(=O)/C(=C/c2ccc(C(F)(F)F)cc2)NC(=O)c2ccc(C(F)(F)F)cc2)cc1`, the inhibition at 6 µg/mL under setting [1] is 95%.
